Data from patent US20120164148A1, “Compositions Containing JARID1B Inhibitors and Methods for Treating Cancer” (The Wistar Institute, priority 2009, published 2012).

Assays:
[1] = test system: WM3734^JARID1Bprom-EGFP cells; experiment: Drug treatment of WM3734 JARID1Bprom-EGFP cells, flow cytometry of J/EGFP+ subpopulation and viable cells; assay type: cell-based, human; details: 72 hours of treatment, clinically relevant doses; threshold set at 5% (DMSO control)
Procedure: Left panels, Relative enrichment of the J/EGFP+subpopulation after 72 hours of treatment with a BRAF inhibitor (PLX4720), bortezomib (VEL), temozolomide (TMZ), or salinomycin (SAL) as determined by flow cytometry. The threshold (dotted line) for the J/EGFP+ subpopulation was set at 5% (DMSO control) based on JARID1B expression studies. Depicted box plots represent three independently performed experiments with flow cytometric determination of J/EGFP expression beyond the indicated threshold. Right panels, The number of viable cells within the total population was decreasing during drug treatment.
Flow Cytometry and Fluorescence Activated Cell Sorting. For detection of JARID1B promoter-driven EGFP signals, adherent cells were harvested with 0.05% trypsin and spheres were dissociated as described herein. Dead cells were excluded by staining for 7-AAD. After sorting, aliquots were microscopically checked and were cultured for a short-time to exclude disproportional enrichment of debris or apoptotic cells. Fluorescence-activated cell sorting was carried out using a CYTOMATION MOFLO cytometer (DakoCytomation). Flow cytometric detection of surface markers was done according to standard procedures. Briefly, cells were fixed in 4% paraformaldehyde (PFA) in PBS for 10 minutes and then were blocked with 1% BSA in PBS for 10 minutes at room temperature. Primary and secondary antibodies were incubated for 10 minutes at room temperature. Before and after antibody incubations, cells were washed three times with 1% BSA in PBS. Samples were analyzed using an EPICS XL instrument (Beckman-Coulter). Monoclonal antibodies were follows: anti-CD20 (APC-conjugated; BD PHARMINGEN), anti-CD133 (PE; Miltenyi Biotech), anti-p75/NGFR (APC; Miltenyi Biotech), and anti-MCAM (FITC; R&D Systems). Isotype-matched mouse APC- (BD PHARMINGEN), PE- (R&D Systems), or FITC-conjugated (R&D Systems) antibodies were used as controls. Flow cytometric isolation of side population cells was performed according to established methods (Goodell, et al. (1996) J. Exp. Med. 183:1797-1806). […]

JARID1B = experiment: Validation of JARID1B shRNA knockdown clones (RNA, protein, BrdU, MTS, cell counts); assay type: cell-based, human; details: out of five shRNA clones
Text: Melanoma Samples and Cell Culture. Fresh human melanoma tissues and cells were obtained according to standard procedures, isolated and maintained in 2% fetal bovine serum (FBS)-substituted melanoma medium (‘Tu2%’) Smalley, et al. (2005) Am. J. Pathol. 166:1541-1554; Satyamoorthy, et al. (1997) Melanoma Res. 7 Suppl 2:S35-42). According to the isolation of neural stem cells and cancer stem cells from brain tumors by culturing of neurospheres (Yuan, et al. (2004) Oncogene 23:9392-9400; Galli, et al. (2004) Cancer Res. 64:7011-7021), melanoma spheres were propagated in mouse embryonic fibroblast (MEF)-conditioned human embryonic stem cell medium (hESCM) according to conventional methods (Fang, et al. (2005) supra). Before use, MEF-conditioned hESCM was mixed with fresh hESCM medium at a 7:3 ratio (‘hESCM4’) and basic fibroblast growth factor was added at 4 ng/ml. Depending on the cell line, sphere formation could be observed 2-6 weeks after starting culture in hESCM4. Spheres were dissociated by collagenase I/IV (Sigma, St. Louis, Mo.) and mechanical treatment, i.e., 200-250 units per ml DMEM (Cellgro) at 37° C. for 10 minutes plus subsequent pipetting. […]
Given the paradox of an increased in vitro self-renewal capacity without any effect on in vivo tumor initiation, it was determined whether JARID1B still could be important for the continuous maintenance of melanomas. […]

WM3734 melanomas = experiment: Bortezomib treatment of xenotransplanted WM3734 melanomas with JARID1B knockdown; assay type: in vivo, NOD/LtSscidIL2Rγ^null mice; details: 20 μg bortezomib intraperitoneally on days 20, 22, 25, 27; JARID1B knocked-down tumors vs sh scrambled control; p=0.024 (MANOVA)
Procedure: Xenotransplanted WM3734 melanomas (mean tumor volume ˜200 mm^3) were treated with 20 μg bortezomib (dissolved in PBS and injected intraperitoneally) on days 20, 22, 25, and 27 after xenotransplantation.
Xenotransplantation Assays and Metastasis Model. To address continuous tumor maintenance in vivo, serial xenotransplantation assays with JARID1B knockdown vs. control cells were performed in NOD/LtSscidIL2Rγ^null mice. For every passage, 10^4 cells in MATRIGEL®/Tu2% at a 1:1 dilution were injected subcutaneously in mice (5 mice per sample). One passage included: injection, tumor growth, tumor dissection, cell isolation (mechanical and collagenase I/IV treatment) and purification. Melanoma cell purification was done by three-day-puromycin treatment confirmed by MCAM flow cytometry. Verification of knockdown was carried out by QRT-PCR. […] Tumor growth was measured weekly using a caliper and was terminated when the first tumor of the series reached 1000 mm^3. Metastatic progression was measured in a spontaneous metastasis model. […] Formalin-fixed, paraffin-embedded (FFPE) sections of whole lungs were H&E-stained and the numbers of macro- and micrometastases were microscopically determined (20× magnification). Two representative frontal sections per lung were analyzed. […]

Compound	relative enrichment for the J/EGFP+ subpopulation [1]	knockdown phenotype (JARID1B)	tumor volume (WM3734 melanomas)
CC[C@@H](C(=O)[C@@H](C)[C@@H](O)[C@H](C)[C@@H]1O[C@@H]([C@@H](CC)C(=O)O)CC[C@@H]1C)[C@H]1O[C@]2(C=C[C@@H](O)[C@]3(CC[C@@](C)([C@H]4CC[C@](O)(CC)[C@H](C)O4)O3)O2)[C@H](C)C[C@@H]1C [salinomycin]	relative enrichment for the J/EGFP+ subpopulation	–	–
CCCS(=O)(=O)Nc1ccc(F)c(C(=O)c2c[nH]c3ncc(Cl)cc23)c1F [PLX7420]	relative enrichment for the J/EGFP+ subpopulation	–	–
sh JARID1B—58: shRNA clone from Sigma targeting the 3′UTR of JARID1B, SEQ ID NO:15 (CCGGCCCACCAATTTGGAAGGCATTCTCGAGAATGCCTTCCAAATTGGTGGGTTTTT)	–	significant knockdown phenotypes	–
JARID1B—62: shRNA clone from Sigma targeting the coding sequence of JARID1B, SEQ ID NO:14 (CCGGCGAGATGGAATTAACAGTCTTCTCGAGAAGACTGTTAATTCCATCTCGTTTTT)	–	significant knockdown phenotypes	–
CC(C)C[C@H](NC(=O)[C@H](Cc1ccccc1)NC(=O)c1cnccn1)B(O)O [bortezomib]	relative enrichment for the J/EGFP+ subpopulation	–	significantly lower tumor volume
